± gives the expanded uncertainty stated by the source.

Consider six compounds from the NIST ThermoML archive (doi:10.1016/j.fluid.2018.04.021).

For the data set the following is noted: Liquid; flow method with low residence time.
Turning to `C1CCCCC1` [cyclohexane], the Critical pressure is recorded as 4074 ± 36 kPa and the Critical temperature is on record as 553.6 ± 0.4 K.
In the same order, the values of `CCOC(=O)OCC` [diethyl carbonate] are 3346 ± 30 kPa and 578.1 ± 0.4 K.
For `CCO` [ethanol], the Critical pressure is listed as 6141 ± 51 kPa and the Critical temperature turned out to be 514 ± 0.4 K.
With `CCCCCCC` [heptane], the Critical pressure is on record as 2736 ± 25 kPa and the Critical temperature is 540.1 ± 0.4 K.
In the same order, the values of `CCCCCC` [hexane] are 3033 ± 27 kPa and 507.8 ± 0.4 K.
On the same counts, the results for `CCCCCCCC` [octane] are 2496 ± 24 kPa and 568.9 ± 0.4 K.
